Test results taken from patent publication US9561231B2 (AbbVie Inc., priority 2012, dated 2017).

Legend:
[1] = biological target: T1, second (BD2: amino acids E352-E168) bromodomain of BRD4 (Homo sapiens, UniProt O60885); assay: TR-FRET bromodomain binding assay, BRD4 BD2; conditions: TR-FRET assay protocol (A-G, compound concentration range); Ki calculated from IC50, probe Kd and probe concentration; read-out: TR-FRET Binding Ki: BRD4 (BDII_E352-M457)
T1 construct: protocol
Experimental: (§1) A time-resolved fluorescence resonance energy transfer (TR-FRET) assay was used to determine the affinities of compounds of the Examples listed in Table 1 for each bromodomain of BRD4. His-tagged first (BD1: amino acids K57-E168) and second (BD2: amino acids E352-E168) bromodomains of BRD4 were expressed and purified. An Alexa647-labeled BET-inhibitor was used as the fluorescent probe in the assay.
(§2) Compound dilution series were prepared in DMSO via an approximately 3-fold serial dilution from one of the following:
(§3) or 5-fold serial dilution from one of the following:
(§4) Assay method A: 2.5 mM-800 nM
(§5) For Assay methods A, C, D, and F: Compounds were then diluted 6:100 in assay buffer (20 mM Sodium Phosphate, pH 6.0, 50 mM NaCl, 1 mM Ethylenediaminetetraacetic acid, 0.01% Triton X-100, 1 mM DL-Dithiothreitol) to yield 3× working solutions. […] of this solution were added to the assay plate to reach a final volume of 18 μL.
(§6) TR-FRET data were normalized to the means of 24 no-compound controls (“high”) and 8 controls containing 1 μM un-labeled probe (“low”). Percent inhibition was plotted as a function of compound concentration and the data were fit with the 4 parameter logistic equation to obtain IC50s. Inhibition constants (Ki) were calculated from the IC50s, probe Kd and probe concentration. Typical Z′ values were between 0.65 and 0.75.

[2] = biological target: T2, first (BD1: amino acids K57-E168) bromodomain of BRD4 (Homo sapiens, UniProt O60885); assay: TR-FRET bromodomain binding assay, BRD4 BD1; conditions: TR-FRET assay protocol (A-G, compound concentration range); Ki calculated from IC50, probe Kd and probe concentration; read-out: TR-FRET Binding Ki: BRD4 (BDI_K57-E168)
T2 construct: His-tagged first (BD1: amino acids K57-E168)
Experimental: as §1, §2, §3, §4, §5, §6

Compound	Ki [1] [µM]	Ki [2] [µM]
Cn1nc(-c2ccccc2OC2CCCC2)ccc1=O [Example 4, 6-[2-(cyclopentyloxy)phenyl]-2-methylpyridazin-3(2H)-one]	> 4.08	1.34
Cn1nc(-c2ccccc2Oc2ccc(C(F)(F)F)cc2)ccc1=O [Example 7, 2-methyl-6-{2-[4-(trifluoromethyl)phenoxy]phenyl}pyridazin-3(2H)-one]	10.4	1.97
Cn1nc(-c2ccccc2Oc2ccc(S(C)(=O)=O)cc2)ccc1=O [Example 8, 2-methyl-6-{2-[4-(methylsulfonyl)phenoxy]phenyl}pyridazin-3(2H)-one]	17.8	8.59
Cn1nc(-c2cc([N+](=O)[O-])ccc2Oc2ccccc2)ccc1=O [Example 9, 2-methyl-6-(5-nitro-2-phenoxyphenyl)pyridazin-3(2H)-one]	9.26	10.5
Cn1nc(-c2cc(C#N)ccc2Oc2ccccc2)ccc1=O [Example 13, 3-(1-methyl-6-oxo-1,6-dihydropyridazin-3-yl)-4-phenoxybenzonitrile]	10.2	13.1
Cn1nc(-c2cc(C(=O)O)ccc2Oc2ccccc2)ccc1=O [Example 15, 3-(1-methyl-6-oxo-1,6-dihydropyridazin-3-yl)-4-phenoxybenzoic acid]	16.3	17.8
COc1cc(=O)n(C)nc1-c1cccc(NS(C)(=O)=O)c1 [Example 19, N-[3-(4-methoxy-1-methyl-6-oxo-1,6-dihydropyridazin-3-yl)phenyl]methanesulfonamide]	8.58	8.85
COc1cc(=O)n(C)nc1-c1ccccc1Oc1ccc(C#N)cc1 [Example 32, 4-[2-(4-methoxy-1-methyl-6-oxo-1,6-dihydropyridazin-3-yl)phenoxy]benzonitrile]	12.2	5.32
COC(=O)COc1cc(=O)n(C)nc1-c1ccccc1Oc1ccccc1 [Example 38, methyl{[1-methyl-6-oxo-3-(2-phenoxyphenyl)-1,6-dihydropyridazin-4-yl]oxy}acetate]	6.83	6.35
COc1cc(=O)n(C)nc1-c1ccccc1OC1CCCCC1 [Example 39, 6-[2-(cyclohexyloxy)phenyl]-5-methoxy-2-methylpyridazin-3(2H)-one]	14.6	3.54
COc1cc(=O)n(C)nc1-c1ccccc1OCc1ccccn1 [Example 40, 5-methoxy-2-methyl-6-[2-(pyridin-2-ylmethoxy)phenyl]pyridazin-3(2H)-one]	20.1	9.48
COc1cc(=O)n(C)nc1-c1ccccc1OCc1ccc2[nH]ncc2c1 [Example 41, 6-[2-(1H-indazol-5-ylmethoxy)phenyl]-5-methoxy-2-methylpyridazin-3(2H)-one]	> 20.3	> 12.9
COc1cc(=O)n(C)nc1-c1ccccc1OCCC1CCCCC1 [Example 42, 6-[2-(2-cyclohexylethoxy)phenyl]-5-methoxy-2-methylpyridazin-3(2H)-one]	> 22.2	> 12.6
COc1cc(=O)n(C)nc1-c1ccccc1OCC1CCN(C(=O)OC(C)(C)C)CC1 [Example 43, tert-butyl 4-{[2-(4-methoxy-1-methyl-6-oxo-1,6-dihydropyridazin-3-yl)phenoxy]methyl}piperidine-1-carboxylate]	> 22.2	> 5.82
COc1cc(=O)n(C)nc1-c1ccccc1OCc1ccncc1 [Example 45, 5-methoxy-2-methyl-6-[2-(pyridin-4-ylmethoxy)phenyl]pyridazin-3(2H)-one]	> 11.1	> 5.67
COc1cc(=O)n(C)nc1-c1ccccc1OCC1CCCC1 [Example 46, 6-[2-(cyclopentylmethoxy)phenyl]-5-methoxy-2-methylpyridazin-3(2H)-one]	18	4.39
COc1cc(=O)n(C)nc1-c1ccccc1OCC1CCOCC1 [Example 47, 5-methoxy-2-methyl-6-[2-(tetrahydro-2H-pyran-4-ylmethoxy)phenyl]pyridazin-3(2H)-one]	> 22.2	5.28
Cn1nc(-c2ccccc2-c2ccccc2)ccc1=O [Example 52, 6-(biphenyl-2-yl)-2-methylpyridazin-3(2H)-one]	10.5	9
Cn1nc(-c2ccccc2-c2cccc(C#N)c2)ccc1=O [Example 53, 2′-(1-methyl-6-oxo-1,6-dihydropyridazin-3-yl)biphenyl-3-carbonitrile]	> 14.3	> 11.5
CN1CCC(c2cc(=O)n(C)nc2-c2ccccc2Oc2ccccc2)CC1 [Example 88, 2-methyl-5-(1-methylpiperidin-4-yl)-6-(2-phenoxyphenyl)pyridazin-3(2H)-one]	–	6.79
CN(C)C(=O)c1cncc(-c2cc(=O)n(C)nc2-c2ccccc2Oc2ccccc2)c1 [Example 215, N,N-dimethyl-5-[1-methyl-6-oxo-3-(2-phenoxyphenyl)-1,6-dihydropyridazin-4-yl]pyridine-3-carboxamide]	11.8	–

Next, values leading:

Ki [1] [µM]	Ki [2] [µM]	Compound
3.43	0.851	Cn1nc(-c2ccccc2Oc2ccc(C#N)cc2)ccc1=O [Example 3, 4-[2-(1-methyl-6-oxo-1,6-dihydropyridazin-3-yl)phenoxy]benzonitrile]
3.17	4.08	Cn1nc(-c2ccccc2Oc2ccccn2)ccc1=O [Example 6, 2-methyl-6-[2-(pyridin-2-yloxy)phenyl]pyridazin-3(2H)-one]
3.19	8.17	COc1cc(=O)n(C)nc1-c1ccccc1Oc1ccc(F)c(Cl)c1 [Example 34, 6-[2-(3-chloro-4-fluorophenoxy)phenyl]-5-methoxy-2-methylpyridazin-3(2H)-one]
1.08	2.39	COc1ccc(Oc2ccccc2-c2nn(C)c(=O)cc2OC)cc1 [Example 35, 5-methoxy-6-[2-(4-methoxyphenoxy)phenyl]-2-methylpyridazin-3(2H)-one]
4.43	5.06	COc1cc(=O)n(C)nc1-c1ccccc1Oc1cccc(F)c1 [Example 36, 6-[2-(3-fluorophenoxy)phenyl]-5-methoxy-2-methylpyridazin-3(2H)-one]
5.11	2.71	COc1cc(=O)n(C)nc1-c1ccccc1OCC1CCNCC1 [Example 44, 5-methoxy-2-methyl-6-[2-(piperidin-4-ylmethoxy)phenyl]pyridazin-3(2H)-one]
1.08	9.44	COC(=O)C1CCN(c2cc(=O)n(C)nc2-c2ccccc2Oc2ccccc2)C1 (stereo not drawn) [Example 48, methyl 1-[1-methyl-6-oxo-3-(2-phenoxyphenyl)-1,6-dihydropyridazin-4-yl]pyrrolidine-3-carboxylate]
6.6	11.6	CN1CCN(c2cc(=O)n(C)nc2-c2ccccc2Oc2ccccc2)CC1=O [Example 51, 2-methyl-5-(4-methyl-3-oxopiperazin-1-yl)-6-(2-phenoxyphenyl)pyridazin-3(2H)-one]
0.507	0.448	Cc1ccc(-c2cc(=O)n(C)nc2-c2ccccc2Oc2ccccc2)cc1N [Example 64, 5-(3-amino-4-methylphenyl)-2-methyl-6-(2-phenoxyphenyl)pyridazin-3(2H)-one]
0.14	0.797	Cn1nc(-c2ccccc2Oc2ccccc2)c(-c2ccc(C=O)cc2)cc1=O [Example 65, 4-[1-methyl-6-oxo-3-(2-phenoxyphenyl)-1,6-dihydropyridazin-4-yl]benzaldehyde]
1.05	0.632	Cn1nc(-c2ccccc2Oc2ccccc2)c(-c2ccc(C(O)C3CCCC3)cc2)cc1=O (stereo not drawn) [Example 74, 5-{4-[cyclopentyl(hydroxy)methyl]phenyl}-2-methyl-6-(2-phenoxyphenyl)pyridazin-3(2H)-one]
1.28	0.755	Cn1nc(-c2ccccc2Oc2ccccc2)c(-c2ccc(C(O)c3ccccc3)cc2)cc1=O (stereo not drawn) [Example 76, 5-{4-[hydroxy(phenyl)methyl]phenyl}-2-methyl-6-(2-phenoxyphenyl)pyridazin-3(2H)-one]
0.38	0.511	C=CCC(O)c1ccc(-c2cc(=O)n(C)nc2-c2ccccc2Oc2ccccc2)cc1 (stereo not drawn) [Example 77, 5-[4-(1-hydroxybut-3-en-1-yl)phenyl]-2-methyl-6-(2-phenoxyphenyl)pyridazin-3(2H)-one]
0.439	0.708	CC(=O)OCc1ccc(-c2cc(=O)n(C)nc2-c2ccccc2Oc2ccccc2)cc1 [Example 80, 4-[1-methyl-6-oxo-3-(2-phenoxyphenyl)-1,6-dihydropyridazin-4-yl]benzyl acetate]
1.43	–	Cn1cccc1-c1cc(=O)n(C)nc1-c1ccccc1Oc1ccccc1 [Example 194, 2-methyl-5-(1-methyl-1H-pyrrol-2-yl)-6-(2-phenoxyphenyl)pyridazin-3(2H)-one]
